Source: ChEMBL document CHEMBL4480448, “In Situ Ring Contraction and Transformation of the Rhizoxin Macrocycle through an Abiotic Pathway” (J Nat Prod, 2019)
Active and inactive are the calls of the source.

Key:
Type in all cases: functional, cell-based
Hep293TT = assay: Cytotoxicity against human Hep293TT cells assessed as reduction in cell viability at 2 uM after 48 hrs by SRB assay
A673 = assay: Cytotoxicity against human A673 cells assessed as reduction in cell viability at 2 uM after 48 hrs by SRB assay
Homo sapiens [1] = species: Homo sapiens; assay: Cytotoxicity against human SJCRH30 cells assessed as reduction in cell viability at 2 uM after 48 hrs by SRB assay
SK-ES1 = assay: Cytotoxicity against human SK-ES-1 cells assessed as reduction in cell viability at 2 uM after 48 hrs by SRB assay
TC-32 = assay: Cytotoxicity against human TC32 cells assessed as reduction in cell viability at 2 uM after 48 hrs by SRB assay
Homo sapiens [2] = species: Homo sapiens; assay: Cytotoxicity against human D283 cells assessed as reduction in cell viability at 2 uM after 48 hrs by SRB assay

Measured: Activity

CO[C@@H](/C(C)=C/C=C/C(C)=C/c1coc(C)n1)[C@@H](C)[C@@H]1C[C@H](O)[C@H](C(C)=O)/C=C/[C@@H](C)[C@H]2C[C@H](CC(=O)O2)C[C@@H]2O[C@H]2C(=O)O1
inactive: all assays above

COC(=O)C[C@H]1C[C@@H](O)[C@H](C)[C@@H](O)/C=C/[C@](C)(O)[C@@H](O)C[C@@H]([C@H](C)[C@@H](OC)/C(C)=C/C=C/C(C)=C/c2coc(C)n2)OC(=O)[C@@H]2O[C@H]2C1
inactive: all assays above

CO[C@@H](/C(C)=C/C=C/C(C)=C/c1coc(C)n1)[C@@H](C)[C@@H]1C[C@H](O)[C@@](C)(O)[C@@H](O)/C=C/[C@@H](C)[C@H]2C[C@H](CC(=O)O2)C[C@@H]2O[C@H]2C(=O)O1
inactive: all assays above

CO[C@@H](/C(C)=C/C=C/C(C)=C/c1coc(C)n1)[C@@H](C)[C@@H]1C[C@H](O)[C@@](C)(O)/C=C/[C@H](O)[C@@H](C)[C@H]2C[C@H](CC(=O)O2)C[C@@H]2O[C@H]2C(=O)O1
inactive: all assays above

CO[C@@H](/C(C)=C/C=C/C(C)=C/c1coc(C)n1)[C@@H](C)[C@@H]1C[C@H](O)[C@@](C)(O)[C@H](O)/C=C/[C@@H](C)[C@H]2C[C@H](CC(=O)O2)C[C@@H]2O[C@H]2C(=O)O1
inactive: all assays above
